Measured values taken from ChEMBL document CHEMBL6109117, “Synthesis of an RBM39 Degrader That Downregulates CEP192 and Induces Disorganized Spindle Structures” (J Med Chem, 2025).
Active and inactive are the calls of the source. The calls are words filed in the database; no cut-off is given here.

Tests used:
HCT-116 [1] = test: Antiproliferative activity against human HCT-116 cells incubated for 4 days by CCK8 assay; assay type: functional, cell-based; conditions: HCT-116, 96 h
HCT-116 [2] = test: Induction of RBM39 degradation in human HCT-116 cells at 0.1 to 1 uM incubated for 24 hrs by Western blot analysis; assay type: cell-based; conditions: dose 0.1-1 µM
HCT-116 [3] = test: Induction of RBM39 degradation in human HCT-116 cells assessed as fold change at 0.1 uM incubated for 24 hrs by Western blot analysis relative to control; assay type: cell-based
HCT-116 [4] = test: Induction of RBM39 degradation in human HCT-116 cells assessed as fold change at 1 uM incubated for 24 hrs by Western blot analysis relative to control; assay type: cell-based
[5] = Competitive inhibition of N-terminal His-tagged RBM39 (146 to 326 residues)/DCAF15 (2 to 600 residues)/full-length DDB1 (1 to 1140 residues)(unknown origin) incubated for 1 hr in presence of (R)-N-(3-(N-(3-Cyano-4-methyl-1H-indol-7-yl)sulfamoyl)phenyl)-2-(2-(((6-(3-(3',6'-dihydroxy-3-oxo-3H-spiro[isobenzofuran-1,9'-xanthen]-5-yl)thioureido)hexyl)amino)methyl)pyrrolidin-1-yl)-2-oxoacetamide by fluorescence polarization assay; design: species or system Homo sapiens
[6] = Inhibition of N-terminal His-tagged RBM39 (146 to 326 residues)/DCAF15 (2 to 600 residues)/full-length DDB1 (1 to 1140 residues)(unknown origin) incubated for 1 hr by fluorescence polarization assay; design: species or system Homo sapiens
[7] = Inhibition of DCAF15 (2 to 600 residues)/full-length DDB1 (1 to 1140 residues)(unknown origin) incubated for 1 hr by fluorescence polarization assay; design: species or system Homo sapiens

IC50 (HCT-116 [1]) [nM]	Compound	Activity (HCT-116 [2])	fold change (FC) (HCT-116 [3])	fold change (FC) (HCT-116 [4])	other results
1500	Cc1ccc(NS(=O)(=O)c2cccc(NC(=O)C(=O)NCCCN)c2)c2[nH]cc(C#N)c12				
776	Cc1ccc(NS(=O)(=O)c2cccc(NC(=O)C(=O)NCCCCCCN(C)C)c2)c2[nH]cc(C#N)c12				
2900	Cc1ccc(NS(=O)(=O)c2cccc(NC(=O)C(=O)NCCN)c2)c2[nH]cc(C#N)c12				
729	COC[C@H]1CCCN1C(=O)C(=O)Nc1cccc(S(=O)(=O)Nc2ccc(C)c3c(C#N)c[nH]c23)c1				
52.3	Cc1ccc(NS(=O)(=O)c2cccc(NC(=O)C(=O)N3CCC[C@@H]3CN)c2)c2[nH]cc(C#N)c12	Active	0.52	0.22	
70.3	Cc1ccc(NS(=O)(=O)c2cccc(NC(=O)C(=O)N3CCCC[C@H]3CO)c2)c2[nH]cc(C#N)c12	Active	0.59	0.21	
927	Cc1ccc(NS(=O)(=O)c2cccc(NC(=O)C(=O)NCCCCCCCN)c2)c2[nH]cc(C#N)c12				
58	Cc1ccc(NS(=O)(=O)c2cccc(NC(=O)C(=O)N3CCCC[C@@H]3CO)c2)c2[nH]cc(C#N)c12	Active	0.66	0.17	
67.8	Cc1ccc(NS(=O)(=O)c2cccc(NC(=O)C(=O)NCCCCCN)c2)c2[nH]cc(C#N)c12	Active	0.8	0.3	IC50 [5]: 301 nM
150	Cc1ccc(NS(=O)(=O)c2cccc(NC(=O)C(=O)NCCCCCCN)c2)c2[nH]cc(C#N)c12				
696	COC[C@@H]1CCCN1C(=O)C(=O)Nc1cccc(S(=O)(=O)Nc2ccc(C)c3c(C#N)c[nH]c23)c1				
50.3	Cc1ccc(NS(=O)(=O)c2cccc(NC(=O)C(=O)N3CCC[C@H]3CO)c2)c2[nH]cc(C#N)c12	Active	0.49	0.32	
398	Cc1ccc(NS(=O)(=O)c2cccc(NC(=O)C(=O)NCCCCCN(C)C)c2)c2[nH]cc(C#N)c12				
	Cc1ccc(NS(=O)(=O)c2cccc(NC(=O)C(=O)N3CCC[C@@H]3CNCCCCCCNC(=S)Nc3ccc4c(c3)C(=O)OC43c4ccc(O)cc4Oc4cc(O)ccc43)c2)c2[nH]cc(C#N)c12				IC50 [6]: 208 nM; IC50 [7]: > 2000 nM
90.5	Cc1ccc(NS(=O)(=O)c2cccc(NC(=O)C(=O)N3CCC[C@H]3CN)c2)c2[nH]cc(C#N)c12	Active	0.55	0.18	
1000	Cc1ccc(NS(=O)(=O)c2cccc(NC(=O)C(=O)NCCCCN)c2)c2[nH]cc(C#N)c12				
